According to BindingDB's records for doi:10.7270/Q2Q52N82 (The Scripps Research Institute Molecular Screening Center, 2012):

Each compound was assayed against ADP-ribosylation factor GTPase-activating protein 1 (Rattus norvegicus, UniProt Q62848).
Chain of ADP-ribosylation factor GTPase-activating protein 1 (Q62848 whole entry): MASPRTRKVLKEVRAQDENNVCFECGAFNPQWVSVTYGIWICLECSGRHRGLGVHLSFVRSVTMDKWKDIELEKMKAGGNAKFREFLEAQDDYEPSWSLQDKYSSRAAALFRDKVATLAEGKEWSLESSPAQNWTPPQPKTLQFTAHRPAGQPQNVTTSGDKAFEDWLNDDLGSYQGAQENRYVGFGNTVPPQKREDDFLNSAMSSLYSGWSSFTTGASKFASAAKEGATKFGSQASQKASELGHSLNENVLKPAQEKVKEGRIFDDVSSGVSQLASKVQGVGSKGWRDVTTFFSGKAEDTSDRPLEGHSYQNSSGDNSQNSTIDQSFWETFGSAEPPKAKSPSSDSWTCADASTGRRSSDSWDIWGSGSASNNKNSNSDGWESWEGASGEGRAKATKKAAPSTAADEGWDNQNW

Compound	IC50 [µM]
CCC(/C=C1\Sc2ccc(OC)cc2N1CCO)=C\c1sc2ccc(OC)cc2[n+]1CCO	> 165
CC(C)=CCC/C(C)=C/Cc1c(O)ccc(C(=O)/C=C/c2ccc(O)cc2)c1O	> 165
Cc1ccc2nc(SCC(=O)c3ccc(Cl)cc3)nc(=O)n2c1	> 165
c1ccc(-c2cc(-c3nnc4sc(-c5ccccn5)nn34)[nH]n2)cc1 [3-(3-phenyl-1H-pyrazol-5-yl)-6-(2-pyridinyl)-[1,2,4]triazolo[3,4-b][1,3,4]thiadiazole]	> 165
O=C(Nc1ccc(CN2CCOCC2)cc1)c1ccc(-c2cc(Cl)ccc2Cl)o1 [5-(2,5-dichlorophenyl)-N-[4-(4-morpholinylmethyl)phenyl]-2-furamide]	> 165
C=c1cc2[nH]c(=O)c(=Cc3ccc(-c4cccc(Cl)c4)o3)c(=N)n2o1 [(6Z)-6-[[5-(3-chlorophenyl)-2-furanyl]methylidene]-7-imino-2-methyl-5-isoxazolo[2,3-a]pyrimidinone]	> 2.03
C=CCNc1nc(NCc2cccc(OC)c2)c2sc(-c3ccccc3)cc2n1 [N4-[(3-methoxyphenyl)methyl]-6-phenyl-N2-prop-2-enyl-thieno[3,2-d]pyrimidine-2,4-diamine]	> 165
COc1ccc(-c2cc3ccccc3oc2=O)cc1NC(=O)c1cccnc1 [N-[2-methoxy-5-(2-oxidanylidenechromen-3-yl)phenyl]pyridine-3-carboxamide]	> 165
CCOc1ccc2oc(C(=O)OCC(=O)N3CC(C)OC(C)C3)c(C)c2c1 (stereo not given) [[2-(2,6-dimethylmorpholin-4-yl)-2-oxoethyl] 5-ethoxy-3-methyl-1-benzofuran-2-carboxylate]	> 165
CC1CC(C)CN(C(=O)COC(=O)c2cc3ccccc3cc2O)C1 (stereo not given) [[2-(3,5-dimethylpiperidin-1-yl)-2-oxidanylidene-ethyl] 3-oxidanylnaphthalene-2-carboxylate]	> 165

Results, then the compound that gave them:

IC50 [µM]	Compound
> 18.3	Cc1ccc2nc(SCC(=O)Nc3cccc(Cl)c3)nc(=O)n2c1 [MLS001234985]
> 165	COCC(C)n1c(C)cc(C(=O)CN2c3cccc4cccc(c34)S2(=O)=O)c1C (stereo not given) [MLS002169376]
> 165	CC(=O)c1cccc(NC(=O)c2cccc3c(-c4cnn(C)c4)coc23)c1 [MLS003120506]
> 18.3	CN(C)CCNC(=O)c1ccc(-c2cn3c(-c4ccc(Oc5ccccc5)cc4)cnc3cn2)cc1 [MLS003123272]
50.7	O=NCc1ccc2noc(-c3ccc(Cl)cc3)c2c1 [SMR000549694]
